According to patent publication US20190375708A1 (VenatoRx Pharmaceuticals, Inc., priority 2018, published 2019):
Like-named read-outs stand apart in the source and are kept apart here.

Experiments:
[1] = system: HBV replication in HepAD38 cells; experiment: Anti-HBV replication assay in HepAD38 cells (QPCR of extracellular HBV DNA); type: cell-based, HBV (genotype D, serotype ayw); conditions: Hepatitis B virus
Method: The anti-HBV activity of the Capsid Assembly Modulators (CAMs) was evaluated in a cell based assay utilizing the human hepatoma cell line HepAD38 (Ladner, S K., et al., 1998). HepAD38 cells were derived from the parental line, HepG2, that were stably transfected with a construct containing an HBV genome (genotype D, serotype ayw) under the control of a tetracycline repressible CMV promoter. Upon removal of tetracycline, viral pre-genomic RNA (pgRNA) and mRNAs are expressed and infectious viral particles are assembled and secreted into the culture medium providing a reliable, robust system to measure multiple steps of the HBV life cycle. Disruption of capsid formation results in reduced levels of DNA-containing virus particles that are released into the culture supernatant. To quantify the effect of CAMs on HBV replication, we developed a sensitive QPCR-based assay that measures extracellular HBV DNA levels upon treatment of HepAD38 cells with various concentrations of test compounds.
HepAD38 cells were maintained in DMEM/F12 medium containing 10% FBS, 400 μg/mL G418 and 0.3 μg/mL tetracycline (tet+ media) to maintain repression of HBV replication. To evaluate each compound, HepAD38 cells were seeded into 24-well collagen coated culture plates (Corning BioCoat) at a density of 200,000 cells per well in 1 mL of medium without tetracycline (tet-media) and allowed to adhere overnight at 37° C., 5% CO2 in a humidified incubator. The following day, media was refreshed and a dose range of each compound was prepared by performing 1 log10 serial dilutions in 100% DMSO at 200× the desired assay concentration. Dilutions were then added to the cells resulting in a final dose range of 1 μM to 10 μM and the plates were returned to the incubator. Following 7 days of incubation, culture supernatants were harvested and HBV DNA levels were evaluated by QPCR and compared to the vehicle treated control wells (i.e. DMSO alone).
To quantify HBV DNA levels, cell culture supernatants were diluted 1:10 in sterile, nuclease-free water (Gibco). The diluted supernatants were subsequently added to a PCR master mix containing 1× Roche Light Cycler Master Mix, 0.5 μM forward primer, 0.5 μM reverse primer (Fwd: 5′-[…] (SEQ ID NO 1); Rev: 5′-[…] (SEQ ID NO 2)), 0.2 μM Roche Universal Probe Library Probe 25. The volume was brought to 20 μL with nuclease-free water and amplification of the HBV target sequence was performed using a Roche LightCycler 480 QPCR instrument. PCR extended out to 45 cycles with each cycle consisting of a denaturation step at 95° C. for 10 sec., followed by an annealing step at 60° C. for 10 sec. and a brief extension step at 72° C. for 1 sec.
Extracellular HBV DNA levels, expressed in copies/mL, were determined by comparison to a standard curve (10^2-10^9 copies/mL) using the Roche LightCycler analysis software. These values were subsequently converted to percent inhibition of HBV replication by dividing the HBV DNA levels in the experimental samples with those obtained from the vehicle control (˜1-2×10^5 copies/mL). Potency, expressed as an EC50 (the effective concentration required to inhibit 50% of HBV replication), was calculated from the dose-response curve using a 4-parameter non-linear regression analysis (GraphPad Prism). The nucleoside analog inhibitor entecavir was used as a positive control to validate each assay run. The EC50 value of entecavir in the HepAD38 assay was 0.5 nM, as previously reported in the literature.

[2] = In vitro cytotoxicity assay (MTT cell viability) in HepG2 cells; type: cell-based, human; conditions: human
Method: To evaluate antiviral selectivity, the cytotoxic activity of each compound was determined using a standard cell viability assay performed on the parental HepG2 cell line. Cell viability was determined by measuring the conversion of 3-(4,5-dimethylthiazol-2-yl)-2,5-diphenyltetrazolium bromide (MTT) to the insoluble formazan salt crystal that occurs in live cells. Briefly, HepG2 cells were seeded in 96-well plates at a density of 20,000 cells per well in EMEM+10% FBS (complete growth medium) and allowed to adhere overnight in a 37° C., 5% CO2 humidified incubator. The next day, test agents were prepared by performing 8 half-log10 serial dilutions in 100% DMSO at 200× the final desired concentration in the assay. Compounds were tested over a range of concentrations from 30 μM to 1.0 nM in the assay. HepG2 cells were incubated in the presence of various concentrations of CAMs for 7 days in a 37° C., 5% CO2 humidified incubator. At the completion of the 7-day incubation period, MTT reagent was added to each well and the mixture was incubated for an additional 3-4 hours. At the completion of the incubation period, all wells were aspirated to remove the culture medium. The formazan crystals were solubilized from the cell monolayers with 100% DMSO. Plates were briefly mixed on an orbital shaker and absorbance was measured at 492 nm using a Perkin-Elmer EnVision multi-label plate reader. All absorbance values were converted to a percentage of the signal obtained from the vehicle treated controls. Absorbance values at 492 nm are directly proportional to the number of viable cells present in the sample. A CC50 value (cytotoxic concentration that results in loss of 50% cell viability) was calculated from the dose-response curve by 4-parameter, non-linear regression analysis using the GraphPad Prism software. The positive control compound, staurosporine, reduced the viability of HepG2 cells in a dose-dependent manner (CC50=100 nM).

[3] = 168 h, 7 days incubation, extracellular HBV DNA by QPCR, read-out: Anti-HBV EC50

SMILES | EC50 [1, 3] [nM] | CC50 at 7 days [2] [nM] | CC50 at 7 days ([2]; positive control, HepG2 cells, 7 days, MTT, read-out: CC50 (loss of 50% cell viability)) [nM] | EC50 ([1]; positive control, read-out: EC50 in the HepAD38 assay) [nM]
Cc1c(C(=O)Nc2ccc(F)c(F)c2)c(C)n(C)c1C(=O)C(=O)NC1(CO)CCCCC1 [Example 616, N-(3,4-difluorophenyl)-5-(2-((1-(hydroxymethyl)cyclohexyl)amino)-2-oxoacetyl)-1,2,4-trimethyl-1H-pyrrole-3-carboxamide] | < 50 | > 30000 |  | 
Cc1c(C(=O)Nc2ccc(F)nc2)c(C)n(C)c1C(=O)C(=O)N[C@H]1C2CC3CC1C[C@](O)(C3)C2 [Example 92, N-(6-fluoropyridin-3-yl)-5-(2-(((1R,2s,3S,5s,7s)-5-hydroxyadamantan-2-yl)amino)-2-oxoacetyl)-1,2,4-trimethyl-1H-pyrrole-3-carboxamide] | 50 to 499 | > 30000 |  | 
Cc1c(C(=O)Nc2ccc(F)c(F)c2)c2n(c1C(=O)C(=O)N[C@H]1C[C@H](O)C1)CCCC2 [Example 456, N-(3,4-difluorophenyl)-3-(2-(((1r,3r)-3-hydroxycyclobutyl)amino)-2-oxoacetyl)-2-methyl-5,6,7,8-tetrahydroindolizine-1-carboxamide] | 500 to 1000 | > 30000 |  | 
Cc1cc(NC(=O)c2c(C)c(C(=O)C(=O)NCC3(N)CCCCC3)n(C)c2C)ccc1F [Example 337, 5-(2-(((1-aminocyclohexyl)methyl)amino)-2-oxoacetyl)-N-(4-fluoro-3-methylphenyl)-1,2,4-trimethyl-1H-pyrrole-3-carboxamide] | 500 to 1000 | 5000 to 30000 |  | 
Cc1cc(NC(=O)c2c(C)c(C(=O)C(=O)NC(C)CN3CCOCC3)n(C)c2C)ccc1F (stereo not drawn) [Example 290, N-(4-fluoro-3-methylphenyl)-1,2,4-trimethyl-5-(2-((1-morpholinopropan-2-yl)amino)-2-oxoacetyl)-1H-pyrrole-3-carboxamide] | < 50 | > 30000 |  | 
Cc1cc(NC(=O)c2cc(C(=O)C(=O)NC(C)(C)C)n3c2CCCC3)cc(F)c1F [Example 397, 3-(2-(tert-butylamino)-2-oxoacetyl)-N-(3,4-difluoro-5-metthylphenyl)-5,6,7,8-tetrahydroindolizine-1-carboxamide] | 50 to 499 | 5000 to 30000 |  | 
Cc1cc(NC(=O)c2c(C)c(C(=O)C(=O)N3C4CCCC3CC(=O)C4)n(C)c2C)cnc1F [Example 193, N-(6-fluoro-5-methylpyridin-3-yl)-1,2,4-trimethyl-5-(2-oxo-2-(3-oxo-9-azabicyclo[3.3.1]nonan-9-yl)acetyl)-1H-pyrrole-3-carboxamide] | > 1000 | > 30000 |  | 
Cc1cc(NC(=O)c2c(C)c(C(=O)C(=O)NC(C)(C)C(=O)O)n(C)c2C)ccc1F [Example 29, 2-(2-(4-((4-fluoro-3-methylphenyl)carbamoyl)-1,3,5-trimethyl-1H-pyrrol-2-yl)-2-oxoacetamido)-2-methylpropanoic acid] | 500 to 1000 | > 30000 |  | 
Cc1noc([C@H](C)NC(=O)C(=O)c2c(Cl)c(C(=O)Nc3ccc(F)c(C)c3)c3n2CCC3)n1 [Example 545, (S)-6-chloro-N-(4-fluoro-3-methylphenyl)-5-(2-((1-(3-methyl-1,2,4-oxadiazol-5-yl)ethyl)amino)-2-oxoacetyl)-2,3-dihydro-1H-pyrrolizine-7-carboxamide] | < 50 | 5000 to 30000 |  | 
CN[C@@H]1C[C@H]2O[C@@](C)([C@@H]1OC)n1c3ccccc3c3c4c(c5c6ccccc6n2c5c31)C(=O)NC4 [staurosporine, reference compound] |  |  | 100 | 
C=C1[C@H](CO)[C@@H](O)C[C@@H]1n1cnc2c(=O)[nH]c(N)nc21 [entecavir, reference compound] |  |  |  | 0.5
Cc1c(C(=O)Nc2ccc(F)c(Cl)c2)c(C)n(C)c1C(=O)C(=O)Nc1ccc(F)cn1 [Example 310, N-(3-chloro-4-fluorophenyl)-5-(2-((5-fluoropyridin-2-yl)amino)-2-oxoacetyl)-1,2,4-trimethyl-1H-pyrrole-3-carboxamide] | < 50 |  |  | 
